Test results: the NIST ThermoML archive (doi:10.1021/je200640q)
Numbers after ± are expanded uncertainties.

What was measured:
[1] = Crystal; DTA
[2] = Molar enthalpy of transition or fusion; conditions: Crystal; DSC

For CC(C)(c1ccc(O)cc1)c1ccc(O)cc1 [2,2-(4',4''-dihydroxy)diphenylpropane], the Normal melting temperature [1] was 156.50 ± 0.5 °C and the “Molar enthalpy of transition or fusion” value [2] was 7.34 ± 0.215 kcal/mol.
